# Source: ChEMBL document CHEMBL1137126, “Aza-boronic acids as non-beta-lactam inhibitors of AmpC-beta-lactamase” (Bioorg Med Chem Lett, 2004)
# Columns and labels:
# Beta-lactamase = Beta-lactamase (Escherichia coli K-12, UniProt P00811); experiment: Apparent inhibition constant against Escherichia coli AmpC beta-lactamase
# Citrobacter freundii = experiment: Minimum inhibitory concentration of compound against Citrobacter freundii derepressed 91/98-2; format: functional
# Enterobacter cloacae = experiment: Minimum inhibitory concentration of compound against Enterobacter cloacae derepressed 12991 ED; format: functional
# Escherichia coli [1] = experiment: Minimum inhibitory concentration of compound against Escherichia coli derepressed
# Pseudomonas aeruginosa = experiment: Minimum inhibitory concentration of compound against Pseudomonas aeruginosa derepressed 88/98; format: functional
# Escherichia coli [2] = experiment: Minimum inhibitory concentration of compound against Escherichia coli K12AmpC-Ent
# Beta-lactamase, sequence (P00811 whole entry): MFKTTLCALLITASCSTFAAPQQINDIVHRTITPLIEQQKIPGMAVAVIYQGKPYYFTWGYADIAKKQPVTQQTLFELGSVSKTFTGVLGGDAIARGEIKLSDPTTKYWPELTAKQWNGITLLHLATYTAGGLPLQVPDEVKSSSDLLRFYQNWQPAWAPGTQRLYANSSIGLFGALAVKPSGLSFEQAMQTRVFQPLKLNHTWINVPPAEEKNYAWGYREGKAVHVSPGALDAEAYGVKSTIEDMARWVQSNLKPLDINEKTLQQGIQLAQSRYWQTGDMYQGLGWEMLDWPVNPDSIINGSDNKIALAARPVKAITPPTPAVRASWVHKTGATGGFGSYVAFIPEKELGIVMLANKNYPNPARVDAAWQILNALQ
SMILES,Ki (Beta-lactamase),also measured
OB(O)c1cccc(/N=N/c2ccc(O)cc2)c1,700 nM,
OB(O)c1cccc(/N=N/c2ccc(/N=N/c3c(O)ccc4ccccc34)cc2O)c1,1800 nM,
OB(O)c1cccc(/N=N/c2c(O)cc(O)c3ccccc23)c1,450 nM,
OB(O)c1cccc(/N=N/c2cc(Cl)c(O)c(Cl)c2)c1,3000 nM,
OB(O)c1cccc(/N=N/c2ccccc2O)c1,3500 nM,
OB(O)c1cccc(/N=N/c2ccc(/N=N/c3c(O)cc(O)c4ccccc34)cc2O)c1,700 nM,
O=[N+]([O-])c1cccc(/N=N/c2cccc(B(O)O)c2)c1O,1500 nM,
OB(O)c1cccc(/N=N/c2c(O)ccc3ccccc23)c1,300 nM,
Nc1cc(B(O)O)ccc1/N=N/c1cccc(B(O)O)c1,2700 nM,
O=S(=O)(O)c1cc(S(=O)(=O)c2cccc(/N=N/c3cccc(B(O)O)c3)c2)cs1,2000 nM,
OB(O)c1cccc(/N=N/c2ccc(O)c3ccccc23)c1,900 nM,
O=S(=O)(O)c1cc(/N=N/c2cccc(B(O)O)c2)c(O)c2ccccc12,5000 nM,
Cc1noc(C)c1/N=N/c1cccc(B(O)O)c1,1000 nM,
OB(O)c1cc(/N=N/c2ccc(Br)cc2)ccc1O,3000 nM,
CC(C)(O/N=C(\C(=O)N[C@@H]1C(=O)N2C(C(=O)[O-])=C(C[n+]3ccccc3)CS[C@H]12)c1csc(N)n1)C(=O)O [CEFTAZIDIME],,MIC (Citrobacter freundii): 64 µg/mL; MIC (Enterobacter cloacae): 256 µg/mL; MIC (Escherichia coli [1]): 128 µg/mL; MIC (Pseudomonas aeruginosa): 128 µg/mL; MIC (Escherichia coli [2]): 64 µg/mL
